Assay results: PubChem BioAssay (NCI)
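GI50 is the concentration that inhibits growth by half. TGI denotes the concentration required for complete inhibition of growth.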

Assays:
Assay in all cases: DTP human tumour cell line panel, 384-well format
[1] = system: 786-0 renal
[2] = system: NCI-H322M lung
[3] = system: CCRF-CEM leukemia
[4] = system: CAKI-1 renal
[5] = system: OVCAR-3 ovarian
[6] = system: A498 renal
[7] = system: BT-549 breast
[8] = system: NCI-H522 lung
[9] = system: OVCAR-4 ovarian
[10] = system: SK-MEL-5 melanoma
[11] = system: RPMI-8226 leukemia
[12] = system: HL-60(TB) leukemia
[13] = system: SF-539 CNS
[14] = system: HCT-116 colon
[15] = system: ACHN renal
[16] = system: NCI/ADR-RES ovarian
[17] = system: SF-295 CNS
[18] = system: IGROV1 ovarian
[19] = system: UACC-62 melanoma
[20] = system: UACC-257 melanoma
[21] = system: M14 melanoma
[22] = system: DU-145 prostate
[23] = system: TK-10 renal
[24] = system: RXF 393 renal
[25] = system: A549 NSCLC
[26] = system: COLO 205 colon
[27] = system: U251 glioblastoma
[28] = system: K-562 leukemia
[29] = system: NCI-H23 lung

Cc1cc2c(C(=O)NC[C@H](C)c3ccccc3)c(O)c(O)cc2c(O)c1-c1c(C)cc2c(C(=O)NC[C@H](C)c3ccccc3)c(O)c(O)cc2c1O
TGI [1]: 2800 nM
GI50 [2]: 1760 nM
TGI [2]: 8.77 µM
GI50 [3]: 243 nM
TGI [3]: 514 nM
GI50 [4]: 657 nM
TGI [4]: 2500 nM
GI50 [5]: 613 nM
TGI [5]: 2080 nM
GI50 [6]: 286 nM
TGI [6]: 818 nM
GI50 [7]: 243 nM
TGI [7]: 582 nM
GI50 [8]: 207 nM
TGI [8]: 396 nM
GI50 [9]: 935 nM
TGI [9]: 4.46 µM
GI50 [10]: 378 nM
TGI [10]: 1580 nM
GI50 [11]: 238 nM
TGI [11]: 447 nM
GI50 [12]: 487 nM
TGI [12]: 1390 nM
GI50 [13]: 233 nM
TGI [13]: 579 nM
GI50 [14]: 274 nM
TGI [14]: 685 nM
GI50 [15]: 1840 nM
TGI [15]: 4.04 µM
GI50 [16]: 2150 nM
TGI [16]: 5.33 µM
GI50 [17]: 345 nM
TGI [17]: 1120 nM
GI50 [18]: 495 nM
TGI [18]: 2920 nM
GI50 [19]: 486 nM
TGI [19]: 1630 nM
GI50 [20]: 1610 nM
TGI [20]: 3.57 µM
GI50 [21]: 394 nM
TGI [21]: 1360 nM
GI50 [22]: 382 nM
TGI [22]: 1980 nM
GI50 [23]: 1280 nM
TGI [23]: 7.08 µM
GI50 [24]: 201 nM
TGI [24]: 625 nM
GI50 [25]: 348 nM
TGI [25]: 1390 nM
GI50 [26]: 1940 nM
TGI [26]: 4.29 µM
GI50 [27]: 281 nM
TGI [27]: 723 nM
GI50 [28]: 328 nM
TGI [28]: 1210 nM
GI50 [29]: 229 nM
TGI [29]: 448 nM
